Results on one compound are retold here after patent publication US12357624B2, “Low dose pridopidine for Parkinson's Disease and other diseases associated with parkinsonism” (PRILENIA NEUROTHERAPEUTICS LTD., priority 2019, dated 2025).

Like-named read-outs stand apart in the source and are kept apart here.

Assay [1] relates to CD68-immunopositive microglial cells. As to conditions: 1 mg/kg. Here is the method:
(§1) Immunohistochemistry and quantitative analyses were performed according to established protocols [Francardo V, Bez F, Wieloch T, Nissbrandt H, Ruscher K, Cenci 33. MA. Neurobiology of Disease. […] Experimental Eye Research. […] (rabbit anti-TH antiserum from Pel-Freez, Rogers, AR, 1:1000) and Cluster of Differentiation 68 (CD68) (rat anti-CD68 antiserum from AbD Serotec, Kidlington, Oxfordshire, UK; 1:1000). Quantitative analyses were performed by an experimentally blinded investigator using the following methods.
The European Journal of Neuroscience. […] Seminars in Immunopathology.

Assay [2] has as its system 6-OHDA-lesioned S1R KO mice. As to conditions: 0.3 mg/kg, 5 weeks, vs saline.
Description: The first injection was given immediately upon completion of lesion surgery. […] Full rotations (continuous turns of 360) were counted off-line by an experimentally blinded investigator. Data are expressed as the total number of net full turns ipsilateral to the lesion per test session.
The number of supporting wall contacts performed independently by the paw contralateral to the lesion was expressed as a percentage of all supporting wall contacts in each session. […]
Assay [3] has as its system STHdhQ7/7 cells expressing Htt96Q-mCherry or Htt20Q-mCherry. As to conditions: cells without aggregates or cells expressing Htt20Q-mCherry. From the text:
H2a-GFP was transiently co-expressed with Htt20Q-mCherry or Htt96Q-mCherry (exon 1) in STHdhQ7/7 cells. H2a-GFP aggregation is a marker of cell stress. […] For comparative purposes, 100% represents H2a-GFP relative intensity in untreated cells showing Htt96Q-mCherry aggregates, 0% is H2a-GFP relative intensity in untreated cells without Htt96Q-cherry aggregates.
ER stress levels can be measured using H2a-GFP as protein indicator of early stages of ER stress. H2a-GFP is a misfolded secretory protein which in response to ER stress accumulates. The STHdhQ7/7 is a striatal derived cell line from a knock in transgenic mouse containing homozygous humanized Huntingtin gene (HTT) with 7 polyglutamine repeats (wild type). STHdhQ7/7 cells are transfected with either Htt96Q-mCherry (mutant, mimics the typical pathogenic expression of Htt in HD patients) or Htt20Q-mCherry (normal) constructs. When the polyQ-expanded Htt protein (96Q) exonl fused to fluorescent mCherry protein is expressed, the levels and aggregation of the protein in individual cells can be monitored using a fluorescent microscope.

For the next assay, the system named is WT and YAC128 neurons. As to conditions: 24 h treatment; after oligomycin plus FCCP. The procedure: Mitochondrial function was assayed by measuring the levels of the fluorescent probe MitoPY1, which detects H2O2 levels in mitochondria. Mitochondrial membrane potential (MMP) was assessed in cortical and striatal neurons using the positively changed fluorescent probe TMRM (tetramethylrhodamine methyl ester). […] Under these conditions, retention of TMRM by mitochondria was studied to estimate changes in Dym. […] TMRM release was calculated based in the differences in fluorescence before and after addition of oligomycin/FCCP.

Assay [4] has as its target Sigma-1 receptor (S1R) vs dopamine D2/D3Rs (Rattus norvegicus, UniProt Q9R0C9). As to conditions: rats; behaviorally relevant doses; cited from earlier work.
For a further assay, the system named is eIF2α-phosphorylation. As to conditions: tested 0.03 to 150 μM. The source says:
The ratio of eIF2a-P to total eIF2a was quantified by immunoblot.

For a further assay, the system named is wild-type motor neurons. As to conditions: 0.1 μM, locally applied; cited from earlier work.
A further assay deals with S1R (Mus musculus, UniProt O55242). As to conditions: both doses of 0.3 and 1 mg/kg; judged plausible from Ki and free brain concentration.
Assay [5] concerns TH-positive neurons in the substantia nigra compacta. As to conditions: 35 days. The procedure: Mice allocated to immunohistochemistry were perfusion-fixed on the day after the last rug/saline administration (interval of approx. 20 h from the last injection). Animals were deeply anesthetized with sodium pentobarbital (240 mg/kg, i.p.) and transcardially perfused with 0.9% saline solution, followed by ice-cold buffered 4% paraformaldehyde (pH 7.4). […] Coronal sections of 30 (1 m thickness were cut on a sliding microtome and stored at −20° C. in a nonfreezing solution (30% ethylene glycol and 30% glycerol in 0.1 M phosphate buffer).
as §1
The number of TH-positive cell bodies in the substantia nigra compacta (SNc) was determined using unbiased stereology according to the optical fractionator method as in [West M J. Stereological methods for estimating the total number of neurons and synapses: issues of precision and bias. Trends in Neurosciences.
Analysis was performed using a Nikon 80i microscope with an x-y motorized stage controlled by the NewCAST software (Visiopharm). The sampling fraction was chosen so as to count at least 100 neurons per side per animal following an established protocol [Francardo V, Recchia A, Popovic N, Andersson D, Nissbrandt H, Cenci M A. Impact of the lesion procedure on the profiles of motor impairment and molecular responsiveness to L-DOPA in the 6-hydroxydopamine mouse model of Parkinson's disease. Neurobiology of Disease. […] Trends in Neurosciences.

Another assay relates to 6-OHDA-lesioned mice. Here is the method:
The study was performed in male C57B16J mice weighing approx. 25 g and having an age of 8 to 9 weeks at the beginning of the experiments. A total of 65 wild-type mice and 52 S1R knockout (KO) mice were used. S1R knockout mice and wild-type littermates (both genders) were bred on a C57BL6J background. Our S1R KO line is derived from the well-characterized Sigmar1^Gt(OST422756)Lex mouse strain distributed by the Mutant Mouse Resource Regional Centre (MMRRC) The mice were housed under a 12-h light/dark cycle with free access to food and water.
Lesions were performed according to previously described procedures [Francardo V, Bez F, Wieloch T, Nissbrandt H, Ruscher K, Cenci 33. MA. […] Brain: A Journal of Neurology. […] 6-OHDA-HCl (Sigma-Aldrich AB, Stockholm, Sweden) was freshly dissolved in 0.02% ascorbate-saline at the concentration of 3.2 mg free base per milliliter. […] The solution was injected via a glass capillary (tip diameter−50 (1 m) at the rate of 0.5 (1 L/min, and the capillary was left in place for 2 mi after each injection.
The first injection was given immediately upon completion of lesion surgery. […] Forelimb use asymmetry during vertical exploration provides a validated measure of forelimb akinesia in hemiparkinsonian rodents [Lundblad M, Andersson M, Winkler C, Kirik D, Wierup N, Cenci M A. Pharmacological validation of behavioural measures of akinesia and dyskinesia in a rat model of Parkinson's disease. The European Journal of Neuroscience. […] The test was executed as in [Francardo V, Bez F, Wieloch T, Nissbrandt H, Ruscher K, Cenci 33. MA. […] The number of supporting wall contacts performed independently by the paw contralateral to the lesion was expressed as a percentage of all supporting wall contacts in each session.

Sequence of Sigma-1 receptor (S1R) vs dopamine D2/D3Rs (Q9R0C9 whole entry): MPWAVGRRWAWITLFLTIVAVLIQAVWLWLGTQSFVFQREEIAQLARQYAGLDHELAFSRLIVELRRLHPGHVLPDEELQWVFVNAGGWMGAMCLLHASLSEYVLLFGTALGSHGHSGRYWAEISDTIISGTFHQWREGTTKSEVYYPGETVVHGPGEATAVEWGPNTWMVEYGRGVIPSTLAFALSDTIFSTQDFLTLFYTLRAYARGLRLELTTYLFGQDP
Sequence of S1R (O55242 whole entry, the tested form may be a part): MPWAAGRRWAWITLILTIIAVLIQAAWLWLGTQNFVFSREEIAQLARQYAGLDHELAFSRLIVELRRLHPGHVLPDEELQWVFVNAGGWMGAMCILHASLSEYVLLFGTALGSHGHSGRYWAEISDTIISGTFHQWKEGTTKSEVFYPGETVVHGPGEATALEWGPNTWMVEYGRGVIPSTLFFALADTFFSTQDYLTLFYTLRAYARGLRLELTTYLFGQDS

For `CCCN1CCC(c2cccc(S(C)(=O)=O)c2)CC1` [pridopidine, 4-[3-(methylsulfonyl)phenyl]-1-propyl-piperidine], the “number of CD68-immunopositive microglial cells” value is listed as “trend towards an effect in the SNc” in assay [1] (SNc) and “not in the ventrolateral striatum” in assay [1] (ventrolateral striatum). For the same compound, the “spontaneous rotations and forelimb use asymmetry (cylinder test, stepping test)” value in [2] is listed as “does not improve motor deficits”. For the same compound, the H2a-GFP levels entry in [3] is on record as “does not alter H2a-GFP levels”. Also, in the assay on WT and YAC128 neurons, the “mitochondrial membrane potential (ΔΨm)” value is reported as “increases mitochondrial membrane potential”. Also, the “receptor occupancy, in vivo PET” value in assay [4] is reported as “occupy the Sigma-1 receptor (S1R) rather than the dopamine D2/D3Rs”. In addition, in the assay on eIF2α-phosphorylation, the “effective concentrations for reduction of eIF2α-P” value fell in the range of 0.03 to 3 µM. In addition, the “mitochondria transport velocity in axons” value in the assay with wild-type motor neurons is “accelerates mitochondria transport in axons”. For the same compound, on S1R, the “occupancy of the S1R at Cmax” value was determined as 100%. For the same compound, the “increase in TH-positive neurons relative to saline treatment” value in assay [5] (0.3 mg/kg s.c. daily) is reported as about 55%. Besides, the “number of TH-positive neurons, SNc ipsilateral to the lesion” value in [5] (0.3 mg/kg s.c. daily) is recorded as 3034 cells; in assay [5] (1.0 mg/kg s.c. daily), about 1901 cells. Also, the “protection of dopaminergic cell bodies in SNc” value in assay [5] (1.0 mg/kg s.c. daily, vs saline) is recorded as “did not, however, confer significant protection of dopaminergic cell bodies in SNc”. The “cylinder test, contralateral forelimb use” value in the assay with 6-OHDA-lesioned mice (0.3 mg/kg s.c. daily) is “reaching levels of performance comparable with sham-control values on weeks 4 and 5”; with 6-OHDA-lesioned mice (1.0 mg/kg s.c. daily), “did not restore contralateral forelimb use in the cylinder test”. Also, the “cylinder test, contralateral forelimb use, difference vs sham” value is about 33% in the assay with 6-OHDA-lesioned mice (1.0 mg/kg s.c. daily, week 5) and about 40% with 6-OHDA-lesioned mice (week 1, pridopidine-treated mice (0.3 or 1.0 mg/kg)).
